# Laboratory results taken from US20260295137A1, “METHOD FOR REMOVING UREMIC TOXINS FROM BLOOD” (INSTITUT NATIONAL DE LA SANTÉ ET DE LA RECHERCHE MÉDICALE, priority 2023, published 2026).
# What was measured:
# human serum albumin [1] = target: T1, human serum albumin (Homo sapiens, UniProt P02768); assay: Ultrafiltration competition assay: displacement of IS from HSA; assay type: binding; conditions: IS 250 μmol/L, HSA 500 μM; for free fraction of IS: displacer 3 mM, pH 7.40, median (IQR), baseline 10.0%; for concentration dependence of increase in free fraction of IS: displacer 1-3 mM
# T1 construct: purchased Sigma-Aldrich (Saint Quentin Fallavier, France) A9511
# Description: (§1) Control experiments were performed by adding the same volume of PBS instead of displacer. Then, 600 μL of samples were transferred in filtration devices (Corning®, Spin-X® UF Concentrator, Wiesbaden, Germany, MWCO: 5 kDa) and were centrifuged at 10,000 g for 5 min and 13,000 g for 15 min at room temperature. Ultrafiltrate was collected and free fraction of IS concentration were assayed fluorometrically as described thereafter.
# (§2) Samples were diluted in PBS and fluorescence was measured with a Jasco FP-8300iRM Spectro-fluorometer (Jasco, Tokyo, Japan).
# The free fraction of IS was measured using ultrafiltration experiments as described as described above.
# human serum albumin [2] = target: T1, human serum albumin; assay: Ultrafiltration competition assay: displacement of p-CS from HSA; assay type: binding; conditions: for free fraction of p-CS: displacer 3 mM, median (IQR), baseline 14%
# Description: as §1, §2
# The free fraction of p-CS was measured using ultrafiltration experiments as described as described above.
# In vitro hemolysis assay = assay type: cell-based, bovine; conditions: bovine, blood, 37° C., control 1.5%; for hemolysis at 4 h, 3000 µM: 3 mmol/L; for hemolysis at 4 h: MCFA 1-3 mmol/L (exact concentration not stated), median (IQR)
# Description: (§3) One milliliter of fresh bovine blood was incubated for 4 h at 37° C. with 50 μL of a solution of medium chain fatty acids (final concentration: 0.25, 0.5, 1, 2 or 3 mmol/L) or PBS as control. A positive control of hemolysis (taken as 100% hemolysis) was produced by incubating 1 mL of bovine blood with 0.1% (v/v) of TRITON X100 followed by 2 freeze-thaw cycles. Samples were centrifuged 2 min at 9000×g and plasma was stored at −20° C. until free hemoglobin assay. Hemolysis was estimated by the free hemoglobin concentration. Hemoglobin concentration was determined spectrophotometrically as described by Fairbanks et al (Clin Chem. 1992 January; 38 (1): 132-40). Briefly, plasma samples were diluted to 1:10 in Na2CO3 9.4 mmol/L and absorbance was read at 415 nm, 450 nm and 700 nm on a microplate reader (Tecan, Lyon, France).
# (§4) Free hemoglobin concentration was calculated using the following equation: […]
# (§5) Wherein: • fHb is the concentration of free hemoglobin in g/L, • A is the absorbance at the specified wavelength, • d is the dilution factor.
# (§6) Results were expressed as percent of total hemolysis.
# (§7) Fresh bovine blood was incubated for 4 h (the full duration of a typical hemodialysis session) at 37° C. in presence of MCFAs (1-3 mmol/L) and dosage of free hemoglobin in plasma was taken as an index of hemolysis (FIG. 6A-D).
# fresh bovine blood = assay: In vitro hemolysis assay; assay type: cell-based; conditions: 4 h, 37° C.; for hemolysis compared to control: 1-3 mmol/L
# Description: as §3, §4, §5, §6, §7
# [3] = Hemodialysis of fresh bovine blood (closed loop): removal of IS
# Text: (§8) To assess the reality of the displacement and the increase of the removal of PBUT during a hemodialysis session, batches of 20 liters of fresh bovine blood were collected from the slaughterhouse under the authorization VC18731 (Oct. 4, 2018) issued from the Direction Départmentale de la Protection des Populations—Direction des Services Vétérinaires (DDPP-DSV, Lyon, France). Blood was heparinized at 3,750 UI/L with Sodium Heparin (Choay, Cheplapharm, France) and filtered on a nylon mesh. Two liters of blood (2 L) were spiked with 200 μmol/L of IS and gently stirred for 2 hours at 37° C. A 2-hour hemodialysis session was performed with Fresenius 5008 CorDiax hemodialysis generator (Fresenius, Sevres, France) and with a polysulfone-based hemodialysis membrane (FXHDF1000, 2.2 m^2, Fresenius Medical Care, Bad Homburg, Germany). Arterial and venous port were disposed in the blood batch to perform a closed loop circuit (see representation of the experimental device on FIG. 1). Blood and dialysate flow rates were set at 200 and 300 mL/min, respectively and dialysate temperature was set at 38° C. […] Blood samples were collected from the arterial lines at 0, 15, 30, 45, 60, 75, 90 and 120 minutes. Blood was centrifuged at 9,000 g for 2 minutes and plasma was stored at −20° C. […] At the beginning and the end of the experiment, hemolysis was estimated through the measurement of free hemoglobin in plasma as described above. Total protein concentration was measured according to the method of Lowry using bovine serum albumin as standard. Hematocrit was measured using a micromethod (Mondal H, Lotfollahzadeh S. Hematocrit. 2023 Jan. 2. In: StatPearls [Internet]. Treasure Island (FL): StatPearls Publishing; 2023). Briefly, 70 μL of blood was collected in a heparinized capillary tube. The end of the capillary tube was sealed with clay sealant and centrifuged at a rate of 9000 rpm for 5 min. The hematocrit level was read using a microhematocrit card reader.
# (§9) 5-Hydroxyindole-2-carboxylic acid (5-HICA) was used as an internal standard in all experiments. Plasma samples were centrifugated at 17 000 rpm for 5 minutes. 125 μL of the supernatant was then pretreated using the Ostro Pass-through Sample Preparation Device (Waters, Saint-Quentin-en-Yvelines, France), including an in-well protein precipitation with acetonitrile (375 μL) in combination with a pass-through method that allows a good extraction. Eluants were evaporated to dryness in a gentle stream of nitrogen gas. […] Total PBUT concentrations were determined by a reverse phase HPLC with an isocratic flow at 0.2 ml/min. p-CS and IS were determined by fluorescence analysis (excitation λex: 270 nm; emission λem: 320 nm).
# [4] = Hemodialysis of fresh bovine blood (closed loop): removal of p-CS
# Text: as §8, §9
# pigs = assay: In vivo hemodialysis in anesthetized pigs: tolerance
# [5] = In vivo hemodialysis in anesthetized pigs: removal of IS; conditions: octanoate vs saline, 2 h HD; P<0.05
# [6] = In vivo hemodialysis in anesthetized pigs: removal of p-CS; conditions: octanoate vs saline, 2 h HD; P<0.05
# bovine red blood cells = assay: Hemodialysis of fresh bovine blood: hematocrit, hemolysis, plasma protein; conditions: continuous infusion of octanoate for 2 h
# [7] = background art; cited from earlier work
# T1 sequence (P02768 25-609): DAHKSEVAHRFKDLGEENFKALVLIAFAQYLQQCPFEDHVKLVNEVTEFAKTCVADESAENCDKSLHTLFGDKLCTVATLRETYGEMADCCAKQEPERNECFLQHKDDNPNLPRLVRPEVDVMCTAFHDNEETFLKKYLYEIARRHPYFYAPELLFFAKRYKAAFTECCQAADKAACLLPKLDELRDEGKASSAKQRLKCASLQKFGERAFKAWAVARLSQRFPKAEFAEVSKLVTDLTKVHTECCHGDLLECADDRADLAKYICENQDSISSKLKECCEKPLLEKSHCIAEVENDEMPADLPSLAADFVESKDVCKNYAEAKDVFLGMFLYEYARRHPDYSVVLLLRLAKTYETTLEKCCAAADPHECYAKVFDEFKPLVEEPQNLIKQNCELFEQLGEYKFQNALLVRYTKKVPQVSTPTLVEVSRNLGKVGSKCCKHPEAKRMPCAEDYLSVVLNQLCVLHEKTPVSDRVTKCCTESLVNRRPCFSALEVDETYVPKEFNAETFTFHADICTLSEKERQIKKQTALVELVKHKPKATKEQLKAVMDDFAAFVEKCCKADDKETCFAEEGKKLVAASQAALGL
smiles,measurement,setting,value
"CCCCCCCCCC(=O)O [Decanoate, decanoic acid]",free fraction of IS,human serum albumin [1],54% (52%-58%)
same,free fraction of p-CS,human serum albumin [2],59% (57%-63%)
same,"hemolysis at 4 h, 3000 µM",In vitro hemolysis assay,21.9%
"CCCCCCCCCCCC(=O)O [Dodecanoate, dodecanoic acid]",free fraction of IS,human serum albumin [1],42% (41%-44%)
same,concentration dependence of increase in free fraction of IS,human serum albumin [1],dose dependently increased the free fraction of IS
same,"hemolysis at 4 h, 500 µM",In vitro hemolysis assay; 0.5 mmol/L,15.3%
same,"hemolysis at 4 h, 3000 µM",In vitro hemolysis assay,24.9%
same,concentration triggering hemolysis,fresh bovine blood; bovine blood,higher than 0.25 mmol/L
"CCCCCC(=O)O [Hexanoate, hexanoic acid]",free fraction of IS,human serum albumin [1],36% (34%-39%)
same,concentration dependence of increase in free fraction of IS,human serum albumin [1],only increased the free fraction of IS at the highest concentration tested
same,free fraction of p-CS,human serum albumin [2],36% (34%-41%)
same,concentration dependence of increase in free fraction of p-CS,human serum albumin [2]; highest concentration 3 mM,only increased the free fraction of p-CS at the highest concentration tested
same,hemolysis at 4 h,In vitro hemolysis assay,3.6%
same,hemolysis compared to control,fresh bovine blood,did not trigger any significant hemolysis
"CCCCCCCC(=O)O [Octanoate, octanoic acid]",hemolysis at 4 h,In vitro hemolysis assay,2.3%
same,hemolysis compared to control,fresh bovine blood,did not trigger any significant hemolysis
same,fractional removal of IS,"[3]; 2 h HD, octanoate infusion, control 36%, p<0.001",91%
same,half-life of IS in plasma,"[3]; octanoate infusion, control 36.4 min",15.2 min
same,increase of fractional removal of IS,"[3]; octanoate vs control, p<0.001",2.5 folds
same,"toxin removal, IS","[3]; per-dialytic infusion of octanoate, control 1.5 μmol/min",3.5 µmol/min
same,fractional removal of p-CS,"[4]; 2 h HD, octanoate infusion, control 38%, p<0.001",88%
same,half-life of p-CS in plasma,"[4]; octanoate infusion, control 20.6 min",12.8 min
same,increase of fractional removal of p-CS,"[4]; octanoate vs control, p<0.001",2.3 folds
same,"toxin removal, pCS","[4]; per-dialytic infusion of octanoate, control 0.3 μmol/min",1 μmol/min
same,hemolysis,"pigs; hematocrit and free hemoglobin, sodium octanoate i.v. during HD",no hemolysis
same,tolerance,"pigs; sodium octanoate 333 mmol/L i.v. at 18 mL/h, 2 h HD",Tolerance of all animals was good and no side effect was noticed
same,increase of dialytic clearance of IS,[5],+113%
same,increase of dialytic clearance of p-CS,[6],+101%
same,change in hematocrit,bovine red blood cells,did not elicit any significant change in hematocrit
same,change in hemolysis levels,bovine red blood cells,did not elicit any significant change in hematocrit or hemolysis levels
CCCCC/C=C\C/C=C\CCCCCCCC(=O)O [linoleic acid],effect on dyslipidemia,[7],exacerbate dyslipidemia
CCCCCCCC/C=C\CCCCCCCC(=O)O [oleic acid],effect on dyslipidemia,[7],exacerbate dyslipidemia
